47 compounds from BindingDB's records for patent US11547697 (Millennium Pharmaceuticals, 2023) can be followed below.

In general, IC50 refers to the concentration needed to halve the response being measured.

Each structure is given as a SMILES string.

What all share (assay): Inhibition Assay of PI3K
Assay [1] addresses Phosphatidylinositol 4,5-bisphosphate 3-kinase catalytic subunit gamma isoform (Homo sapiens, UniProt P48736).
For assay [2], the target named is T1, Phosphatidylinositol 4,5-bisphosphate 3-kinase catalytic subunit delta isoform (Homo sapiens, UniProt O00329).
T1 sequence (O00329 whole entry): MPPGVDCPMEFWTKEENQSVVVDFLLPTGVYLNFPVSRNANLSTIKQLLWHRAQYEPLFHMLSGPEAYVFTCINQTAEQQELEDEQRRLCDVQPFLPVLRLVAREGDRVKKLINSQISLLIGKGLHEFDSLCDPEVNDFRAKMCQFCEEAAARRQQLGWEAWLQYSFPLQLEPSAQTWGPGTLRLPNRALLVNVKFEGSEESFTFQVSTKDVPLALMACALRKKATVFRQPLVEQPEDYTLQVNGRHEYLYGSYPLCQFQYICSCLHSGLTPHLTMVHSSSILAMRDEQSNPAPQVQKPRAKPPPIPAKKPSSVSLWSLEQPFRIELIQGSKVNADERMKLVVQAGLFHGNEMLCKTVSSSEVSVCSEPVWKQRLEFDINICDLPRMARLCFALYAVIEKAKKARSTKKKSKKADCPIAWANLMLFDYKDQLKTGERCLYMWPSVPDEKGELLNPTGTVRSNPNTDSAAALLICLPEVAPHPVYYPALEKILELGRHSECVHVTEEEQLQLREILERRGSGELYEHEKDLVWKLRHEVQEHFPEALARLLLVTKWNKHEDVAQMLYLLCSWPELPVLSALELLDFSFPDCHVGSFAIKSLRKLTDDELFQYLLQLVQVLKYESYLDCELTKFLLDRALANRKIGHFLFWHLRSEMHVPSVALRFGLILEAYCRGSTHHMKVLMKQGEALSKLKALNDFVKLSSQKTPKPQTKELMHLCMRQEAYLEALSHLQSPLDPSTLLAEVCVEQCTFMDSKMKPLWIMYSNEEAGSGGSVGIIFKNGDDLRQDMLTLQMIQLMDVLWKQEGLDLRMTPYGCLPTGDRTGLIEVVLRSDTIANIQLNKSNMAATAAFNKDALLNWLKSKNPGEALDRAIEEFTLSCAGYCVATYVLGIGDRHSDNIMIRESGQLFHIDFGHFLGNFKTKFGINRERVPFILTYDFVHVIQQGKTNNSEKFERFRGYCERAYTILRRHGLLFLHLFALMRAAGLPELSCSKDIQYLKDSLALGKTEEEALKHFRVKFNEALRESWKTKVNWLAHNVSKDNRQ

Assay [3] concerns the target Phosphatidylinositol 4,5-bisphosphate 3-kinase catalytic subunit beta isoform (Homo sapiens, UniProt P42338).

Sequence of Phosphatidylinositol 4,5-bisphosphate 3-kinase catalytic subunit beta isoform (P42338 whole entry, canonical isoform): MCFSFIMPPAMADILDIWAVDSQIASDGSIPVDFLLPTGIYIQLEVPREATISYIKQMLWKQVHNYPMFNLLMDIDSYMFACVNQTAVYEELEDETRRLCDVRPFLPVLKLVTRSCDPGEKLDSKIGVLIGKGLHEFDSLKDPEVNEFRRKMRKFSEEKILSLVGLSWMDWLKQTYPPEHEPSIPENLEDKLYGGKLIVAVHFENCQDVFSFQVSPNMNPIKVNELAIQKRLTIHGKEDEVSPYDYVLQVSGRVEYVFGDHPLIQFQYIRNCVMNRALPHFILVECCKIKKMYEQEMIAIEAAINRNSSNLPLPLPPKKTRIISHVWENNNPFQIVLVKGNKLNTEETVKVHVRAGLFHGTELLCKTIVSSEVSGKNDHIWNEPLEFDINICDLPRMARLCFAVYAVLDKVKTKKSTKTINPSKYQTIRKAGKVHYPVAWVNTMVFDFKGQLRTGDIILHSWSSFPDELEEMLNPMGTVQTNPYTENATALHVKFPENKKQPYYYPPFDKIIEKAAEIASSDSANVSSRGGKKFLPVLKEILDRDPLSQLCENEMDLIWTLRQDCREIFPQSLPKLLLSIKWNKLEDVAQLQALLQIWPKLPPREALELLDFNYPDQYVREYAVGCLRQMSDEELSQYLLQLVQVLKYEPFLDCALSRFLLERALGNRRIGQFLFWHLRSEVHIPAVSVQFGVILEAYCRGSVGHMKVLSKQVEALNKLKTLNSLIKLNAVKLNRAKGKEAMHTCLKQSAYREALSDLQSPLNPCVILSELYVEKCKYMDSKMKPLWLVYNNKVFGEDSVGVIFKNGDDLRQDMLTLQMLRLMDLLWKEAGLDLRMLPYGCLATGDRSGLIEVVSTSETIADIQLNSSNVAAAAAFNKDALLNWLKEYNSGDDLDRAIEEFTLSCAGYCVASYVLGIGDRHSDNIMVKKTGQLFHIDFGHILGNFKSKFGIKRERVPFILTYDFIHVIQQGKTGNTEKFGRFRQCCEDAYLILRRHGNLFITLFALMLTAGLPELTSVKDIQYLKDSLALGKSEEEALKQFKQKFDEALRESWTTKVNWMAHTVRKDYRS
Sequence of Phosphatidylinositol 4,5-bisphosphate 3-kinase catalytic subunit gamma isoform (P48736 whole entry, canonical isoform): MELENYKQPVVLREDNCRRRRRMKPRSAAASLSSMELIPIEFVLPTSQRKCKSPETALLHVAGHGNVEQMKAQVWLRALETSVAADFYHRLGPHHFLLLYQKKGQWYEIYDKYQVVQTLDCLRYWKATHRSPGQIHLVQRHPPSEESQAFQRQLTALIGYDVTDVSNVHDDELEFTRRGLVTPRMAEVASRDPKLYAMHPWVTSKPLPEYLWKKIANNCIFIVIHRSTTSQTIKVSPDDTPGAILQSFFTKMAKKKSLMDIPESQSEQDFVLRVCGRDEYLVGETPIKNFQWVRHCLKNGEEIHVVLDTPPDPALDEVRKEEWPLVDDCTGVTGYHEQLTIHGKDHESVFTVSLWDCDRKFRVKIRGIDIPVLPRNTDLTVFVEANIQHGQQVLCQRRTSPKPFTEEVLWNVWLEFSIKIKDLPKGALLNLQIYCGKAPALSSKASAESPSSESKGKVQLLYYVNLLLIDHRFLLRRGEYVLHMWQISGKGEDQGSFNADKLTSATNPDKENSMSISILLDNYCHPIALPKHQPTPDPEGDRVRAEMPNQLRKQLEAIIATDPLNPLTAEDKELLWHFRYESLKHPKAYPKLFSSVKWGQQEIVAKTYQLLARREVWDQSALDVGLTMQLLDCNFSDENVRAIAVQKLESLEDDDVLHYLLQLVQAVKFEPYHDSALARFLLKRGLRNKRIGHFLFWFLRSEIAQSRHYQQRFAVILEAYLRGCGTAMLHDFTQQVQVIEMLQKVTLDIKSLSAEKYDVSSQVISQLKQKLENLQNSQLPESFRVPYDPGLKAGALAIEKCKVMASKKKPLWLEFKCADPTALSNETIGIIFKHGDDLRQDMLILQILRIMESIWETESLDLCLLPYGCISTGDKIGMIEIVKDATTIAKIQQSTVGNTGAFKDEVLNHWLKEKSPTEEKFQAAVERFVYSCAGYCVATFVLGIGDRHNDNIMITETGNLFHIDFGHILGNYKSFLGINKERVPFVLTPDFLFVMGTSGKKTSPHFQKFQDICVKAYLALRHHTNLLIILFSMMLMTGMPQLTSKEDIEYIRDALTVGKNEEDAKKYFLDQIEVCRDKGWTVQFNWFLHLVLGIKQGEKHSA

The compound `Nc1nc2cc(-c3ccc4ncc(N5CC(N6CCN(CC7CC7)CC6)C5)nc4c3)ccc2o1` [US11547697, Compound 335] yielded an IC50 in assay [1] above 10 µM. On to `CC(=O)N1CCC(n2cnc3ccc(-c4ccc5oc(N)nc5c4)cc3c2=O)CC1` [US11547697, Compound 66], for which the IC50 in assay [1] and in assay [2] was above 10 µM throughout. For `CC(C)N1CCN(C(=O)c2cnc3ccc(-c4ccc5oc(N)nc5c4)cn23)CC1` [US11547697, Compound 160], the IC50 in assay [1] and in assay [2] was above 10 µM throughout. In the case of `Cc1c(-c2ccc3oc(N)nc3c2)ccc2ncc(N3CCN[C@@H](C)C3)nc12` [US11547697, Compound 374], the IC50 in assay [1] was above 10 µM.

Regarding `Nc1nc2cc(-c3ccc4ncc(C(=O)NCCN5CCCC5)n4c3)ccc2o1` [US11547697, Compound 296], in assay [1], the IC50 is above 10 µM. Same read-out and setting: the value for `CN1CCC(n2cnc3ccc(-c4cnc(Cl)c(NS(C)(=O)=O)c4)cc3c2=O)CC1` [US11547697, Compound 526] was above 10 µM; that for `Nc1nc2cc(-c3ccc4ncn(CCCN5CCCC5)c(=O)c4c3)ccc2o1` [US11547697, Compound 271] was above 10 µM. Take `Cc1cc2oc(N)nc2cc1-c1ccc2ncc(N3CCN[C@@H](C)C3)nc2c1` [US11547697, Compound 351]: the IC50 in assay [1] and in assay [2] was above 10 µM each time.

For the compound `COC(=O)N1CCC(n2ncc3c(N4CCOCC4)nc(-c4ccc5oc(N)nc5c4)nc32)CC1` [US11547697, Compound 330], the IC50 in assay [1] and in assay [2] was above 10 µM in each case. In the case of `CN1CCN(C(=O)c2cnc3ccc(-c4ccc5nc(N)sc5c4)cn23)CC1` [US11547697, Compound 146], the IC50 in assay [1] and in assay [2] was above 10 µM in each case. On to `C[C@H]1CN(c2cnc3ccc(-c4ccc5sc(N)nc5c4)cc3n2)CCN1` [US11547697, Compound 307], for which the IC50 in assay [1] and in assay [2] was above 10 µM each time.

For `CN1CC(n2cnc3ccc(-c4ccc5oc(N)nc5c4)cc3c2=O)C1` [US11547697, Compound 528], the IC50 in assay [1] and in assay [2] was above 10 µM each time.

`Nc1nc2cc(-c3ccc4ncc(N5CCC(N)CC5)nc4c3)ccc2o1` [US11547697, Compound 168] had an IC50 in assay [1] above 10 µM. For the compound `Nc1nc2cc(-c3ccc4ncn(C5CCOCC5)c(=O)c4c3)ccc2o1` [US11547697, Compound 55], the IC50 in assay [1] and in assay [2] was above 10 µM in each case.

`CO[C@@H]1CCN(C(=O)c2cnc3ccc(-c4ccc5oc(N)nc5c4)cn23)C1` [US11547697, Compound 464]: the IC50 in assay [3] and in assay [2] was above 10 µM throughout. With `Cc1c(-c2ccc3oc(N)nc3c2)ccc2ncc(N3CC(N4CCNCC4)C3)nc12` [US11547697, Compound 386], the IC50 in assay [3] and in assay [2] was above 10 µM throughout.

As for `Nc1nc2cc(-c3ccc4ncc(C(=O)N5CCNCC5)n4c3)ccc2o1` [US11547697, Compound 111], the IC50 in assay [1] and in assay [2] was above 10 µM in each case. For `CN1CCN(C(=O)c2cnc3ccc(-c4ccc5sc(N)nc5c4)cn23)CC1` [US11547697, Compound 144], the half-maximal inhibitory concentration (IC50) in assay [1] and in assay [2] was above 10 µM throughout.

On to `Nc1nc2cc(-c3ccc4ncc(-c5cccnc5)nc4c3)ccc2o1` [US11547697, Compound 76], for which the IC50 in assay [3] and in assay [2] was above 10 µM throughout.

As to `Cc1ccc(-c2cnc3ccc(-c4ccc5oc(N)nc5c4)cc3n2)cn1` [US11547697, Compound 194], the IC50 in assay [3] and in assay [2] was above 10 µM throughout. For `CC(C)(N)C(=O)N1CCN(c2cnc3ccc(-c4ccc5oc(N)nc5c4)cc3n2)CC1` [US11547697, Compound 213], the IC50 in assay [1] was above 10 µM.

On to `Nc1nc2cc(-c3ccc4ncc(C(=O)N5CCC(N)CC5)n4c3)ccc2o1` [US11547697, Compound 204], for which the IC50 in assay [1] and in assay [2] was above 10 µM in each case.

As to `Nc1nc2cc(-c3ccc4ncc(C(=O)N5CC5)n4c3)ccc2o1` [US11547697, Compound 340], the IC50 in assay [3] and in assay [2] was above 10 µM each time. The compound `CNC(=O)CN1CCN(c2cnc3ccc(-c4ccc5oc(N)nc5c4)cc3n2)CC1` [US11547697, Compound 120] came in with an IC50 in assay [1] above 10 µM.

As for `CCN1CCN(C(=O)c2cnc3ccc(-c4ccc5oc(N)nc5c4)cn23)CC1` [US11547697, Compound 141], the IC50 in assay [3] and in assay [2] was above 10 µM in each case.

Consider `Nc1nc2cc(-c3ccc4ncc(C(=O)N5CCC(N6CC(F)(F)C6)C5)n4c3)ccc2o1` (stereo not given) [US11547697, Compound 498], for which the IC50 in assay [3] and in assay [2] was above 10 µM throughout.

Turning to `Nc1nc2cc(-c3ccc4ncc(C(=O)NC5CCC(O)CC5)n4c3)ccc2o1` (stereo not given) [US11547697, Compound 143], the IC50 in assay [1] was below 0.1 µM. As to `Nc1nc2cc(-c3ccc4ncc(N5CCS(=O)(=O)CC5)nc4c3)ccc2o1` [US11547697, Compound 98], the IC50 in assay [3] and in assay [2] was above 10 µM in each case. With `Nc1nc2cc(-c3c[nH]c4nccc(-c5ccncc5)c34)ccc2o1` [US11547697, Compound 25], the IC50 in assay [3] and in assay [2] was above 10 µM each time. Turning to `Nc1nc2cc(-c3ccc4ncn(C5CC5)c(=O)c4c3)ccc2o1` [US11547697, Compound 254], the IC50 in assay [3] and in assay [2] was above 10 µM in each case.

Turning to `Nc1nc2cc(-c3ccc4ncc(C(=O)N5CCC(O)CC5)n4c3)ccc2o1` [US11547697, Compound 162], the IC50 in assay [3] and in assay [2] was above 10 µM each time. Consider `CNc1noc2cc(-c3ccc4ncc(C(=O)N5CCOCC5)n4c3)ccc12` [US11547697, Compound 486], for which the IC50 in assay [3] and in assay [2] was above 10 µM each time. On to `CN1CCC(N(C)C(=O)c2cnc3ccc(-c4ccc5oc(N)nc5c4)cn23)CC1` [US11547697, Compound 165], for which the half-inhibitory concentration (IC50) in assay [1] was above 10 µM. Turning to `CC1(C)CN(c2cnc3ccc(-c4ccc5oc(N)nc5c4)cc3n2)CCN1` [US11547697, Compound 336], the IC50 in assay [1] is above 10 µM. Regarding `C[C@@H]1CN(C(=O)c2cnc3ccc(-c4ccc5oc(N)nc5c4)cn23)C[C@H](C)O1` [US11547697, Compound 106], the IC50 in assay [3] and in assay [2] was above 10 µM in each case. With `CN1CCN([C@@H]2CCN(c3cnc4ccc(-c5ccc6oc(N)nc6c5)cc4n3)C2)CC1` [US11547697, Compound 379], the IC50 in assay [1] is above 10 µM. Turning to `CN1CCN(C(=O)c2cnc3ccc(-c4ccc5oc(N)nc5c4)nn23)CC1` [US11547697, Compound 104], the IC50 in assay [3] and in assay [2] was above 10 µM throughout. In the case of `Cc1cn(-c2cnc3ccc(-c4ccc5oc(N)nc5c4)cc3n2)cn1` [US11547697, Compound 177], the IC50 in assay [3] and in assay [2] was above 10 µM throughout.

As to `NC(=O)[C@@H]1CCCN1C(=O)C1CN(c2cnc3ccc(-c4ccc5oc(N)nc5c4)cc3n2)C1` [US11547697, Compound 283], the half-maximal inhibitory concentration (IC50) in assay [3] and in assay [2] was above 10 µM in each case. For `CC(=O)Nc1nc2ccc(-c3ccc4nccc(-c5ccncc5)c4c3)cc2s1` [US11547697, Compound 2], the IC50 in assay [3] and in assay [2] was above 10 µM in each case. For the compound `Nc1nc2cc(-c3ccc4ncc(C(=O)N5CCC(F)CC5)n4c3)ccc2o1` [US11547697, Compound 503], the IC50 in assay [3] and in assay [2] was above 10 µM each time.

On to `Nc1nc2cc(-c3ccc4ncc(C(=O)N5CCC(F)(F)CC5)n4c3)ccc2o1` [US11547697, Compound 501], for which the IC50 in assay [3] and in assay [2] was above 10 µM in each case. For `Nc1nc2cc(-c3cc4nccc(-c5ccncc5)c4s3)ccc2o1` [US11547697, Compound 14], the IC50 in assay [3] and in assay [2] was above 10 µM throughout. As to `CN1CCC(n2cnc3ccc(-c4ccc5oc(N)nc5c4)cc3c2=O)CC1` [US11547697, Compound 36], the 50% inhibitory concentration (IC50) in assay [1] was above 10 µM. Take `Nc1nc2cc(-c3ccc4ncc(N5CCN(CC(F)(F)F)CC5)nc4c3)ccc2o1` [US11547697, Compound 395]: the IC50 in assay [3] and in assay [2] was above 10 µM in each case. Consider `C[C@H]1CN(C2CN(c3cnc4ccc(-c5ccc6oc(N)nc6c5)cc4n3)C2)CCN1` [US11547697, Compound 350], for which the IC50 in assay [1] was above 10 µM. Consider `Nc1nc2cc(-c3ccc4ncc(N5CCC(n6cccn6)CC5)nc4c3)ccc2o1` [US11547697, Compound 337], for which the IC50 in assay [3] and in assay [2] was above 10 µM throughout.
